Experimental data: patent publication US20230020161A1, “Tricyclic Modulators of PP2A” (Rappta Therapeutics Oy, priority 2020, published 2023)

Legend:
LNCaP cells = test: Cell viability assay (MTS) in LNCaP cells; assay type: cell-based; details: doses 1 μM to 80 μM
Experimental: Cell line LNCaP was used for this assay. LNCaP cells were plated in 96-well plates at a density of 5000 cells per well. After 24 hours of plating, cells were treated with increasing doses of compound ranging from 1 μM to 80 μM. Relative cell numbers were analyzed after 48 hours using a 3-(4,5-dimethylthiazol-2-yl)-5-(3-carboxymethoxyphenyl)-2-(4-sulfophenyl)-2H-tetrazolium (MTS) assay (Promega) according to the manufacturer's directions.
LNCaP cells were treated with increasing doses of Target compound and cell viability was measured at 48 hours by MTS analysis.
The cell viability data was analyzed with GraphPad Prism software. The values were log transformed and analyzed with nonlinear regression (curve-fit) using log(inhibitor) vs. response variable slope (four parameters) and constraining the bottom to equal zero.

[1] = target: T1, Human Pregnane X Receptor (PXR, NR1I2) (Homo sapiens, UniProt O75469); test: PXR activation assay (Puracyp DPX2-96-001); assay type: cell-based
T1 construct: host or cells: DPX2 cells of the kit
T1 sequence (O75469 1-434): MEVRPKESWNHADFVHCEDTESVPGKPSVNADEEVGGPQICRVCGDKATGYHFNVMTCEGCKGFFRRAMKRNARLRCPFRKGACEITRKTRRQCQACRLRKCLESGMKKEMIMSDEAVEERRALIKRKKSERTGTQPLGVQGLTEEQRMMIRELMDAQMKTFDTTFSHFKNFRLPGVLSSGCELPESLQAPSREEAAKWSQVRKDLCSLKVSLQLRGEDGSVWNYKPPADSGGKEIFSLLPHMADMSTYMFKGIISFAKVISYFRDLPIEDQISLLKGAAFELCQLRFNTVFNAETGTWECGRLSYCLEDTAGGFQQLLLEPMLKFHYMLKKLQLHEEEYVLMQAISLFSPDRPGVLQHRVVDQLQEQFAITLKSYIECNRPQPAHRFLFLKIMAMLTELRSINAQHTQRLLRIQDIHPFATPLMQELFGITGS
Description: PXR is a nuclear hormone receptor involved in the transcriptional regulation of a number of metabolic enzymes (e.g. CYP3A4) and transporters (e.g. PGP). Its activation by xenobiotic substances leads to upregulation of those metabolic enzymes and transporters and consequent removal of those substances from systemic circulation. It is not uncommon to find that drugs activate the PXR receptor with problematic consequences. […] In addition, if the drug itself is metabolized by, for example, CYP3A4, then there can be reduced exposure of the drug on repeated administration (auto-induction). It is thus considered beneficial to eliminate or at least minimize PXR activation if drug candidates. For drug series where PXR activation is significant, PXR activation is generally treated as a key criterion for optimization and advancement (V. Chu et al., Drug Metab. Dispos. 37, 1339 (2009).
PXR activation assay was performed according to manufacturer's instructions (Puracyp, Inc, Catalog #DPX2-96-001).

[2] = Concentration observed is at 10 μM

| Compound | GI50 (LNCaP cells; Homo sapiens, LNCaP, 48 h) | Maximum fold activation observed (Average) [1, 2] | Percent positive control response [1, 2] | GI50 (LNCaP cells; 48 hours) | Percent positive control response ([1]; @30 μM) |
| --- | --- | --- | --- | --- | --- |
| N=[S@](=O)(N[C@@H]1CCC[C@H](N2c3ccccc3Oc3ccccc32)[C@H]1O)c1ccc(OC(F)(F)F)cc1 (relative stereo) [Target T11-1] | 16.7 µM | 4.57 | 24.2% |  |  |
| CN=[S@@](=O)(NC[C@H](O)CN1c2ccccc2CCc2ccccc21)c1ccc(OC(F)(F)F)cc1 (single isomer, unassigned) [Target T6d1] | 22.7 µM |  |  |  |  |
| N=[S@](=O)(NC[C@H](O)CN1c2ccccc2CCc2ccccc21)c1ccc(OC(F)(F)F)cc1 (single isomer, unassigned) [Target T5d2] | 20.2 µM |  |  |  |  |
| CN=[S@](=O)(NC[C@H](O)CN1c2ccccc2CCc2ccccc21)c1ccc(OC(F)(F)F)cc1 (single isomer, unassigned) [Target T6d2] | 24.5 µM |  |  |  |  |
| N=[S@@](=O)(NC[C@H](O)CN1c2ccccc2CCc2ccccc21)c1ccc(OC(F)(F)F)cc1 (single isomer, unassigned) [Target T5d1] | 25.8 µM |  |  |  |  |
| O=S(=O)(N[C@@H]1COC[C@H](N2c3ccccc3Oc3ccccc32)[C@H]1O)c1ccc(OC(F)(F)F)cc1 [Target T13, reference compound] |  | 11 | 57% | 14.2 µM |  |
| N=[S@@](=O)(N[C@@H]1COC[C@H](N2c3ccccc3Oc3ccccc32)[C@H]1O)c1ccc(OC(F)(F)F)cc1 (relative stereo) [Target T14-2] | 25.6 µM | 4.12 | 21.2% |  |  |
| N=[S@@](=O)(N[C@@H]1CCC[C@H](N2c3ccccc3Oc3ccccc32)[C@H]1O)c1ccc(OC(F)(F)F)cc1 (relative stereo) [Target T11-2] | 16.8 µM | 4.82 | 26% |  |  |
| N=[S@](=O)(N[C@@H]1COC[C@H](N2c3ccccc3Oc3ccccc32)[C@H]1O)c1ccc(OC(F)(F)F)cc1 (relative stereo) [Target T14-1] | 25.6 µM | 6.21 |  |  | 35.4 @30 μM % |
| O=S(=O)(N[C@@H]1COC[C@H](N2c3ccccc3Oc3ccccc32)[C@H]1O)c1ccc(OC(F)(F)F)cc1 [T10 (DT-061), reference compound] | 10.7 µM | 17.3 | 89.8% |  |  |

Now from value to compound:

| GI50 (LNCaP cells; Homo sapiens, LNCaP, 48 h) | Maximum fold activation observed (Average) [1, 2] | Percent positive control response [1, 2] | GI50 (LNCaP cells; 48 hours) | Percent positive control response ([1]; @30 μM) | Compound |
| --- | --- | --- | --- | --- | --- |
| 8.53 µM | 1.79 | 5.37% |  |  | CN=[S@](=O)(N[C@@H]1COC[C@H](n2c3ccc(Cl)cc3c3cc(Cl)ccc32)[C@H]1O)c1ccc(OC(F)(F)F)cc1 (relative stereo) [Target T18-1] |
| 8.2 µM | 3.93 | 16.7% |  |  | O=S(=O)(N[C@@H]1COC[C@H](n2c3ccc(Cl)cc3c3cc(Cl)ccc32)[C@H]1O)c1ccc(OC(F)(F)F)cc1 [Target T16, reference compound] |
| 55.4 µM |  |  |  |  | CCCN=S(=O)(N[C@@H]1COC[C@H](N2c3ccccc3Oc3ccccc32)[C@H]1O)c1ccc(OC(F)(F)F)cc1 (stereo partly drawn) [Target T15C, N-((3R,4R,5S)-4-hydroxy-5-(10H-phenoxazin-10-yl)tetrahydro-2H-pyran-3-yl)-N′-propyl-4-(trifluoromethoxy) benzenesulfonimidoamide] |
| 9.64 µM | 2.45 | 9.88% |  |  | N=[S@@](=O)(N[C@@H]1COC[C@H](n2c3ccc(Cl)cc3c3cc(Cl)ccc32)[C@H]1O)c1ccc(OC(F)(F)F)cc1 (relative stereo) [Target T17-2] |
| 12.2 µM | 2.36 | 9.23% |  |  | CN=[S@@](=O)(N[C@@H]1COC[C@H](n2c3ccc(Cl)cc3c3cc(Cl)ccc32)[C@H]1O)c1ccc(OC(F)(F)F)cc1 (relative stereo) [Target T18-2] |
| 23.6 µM | 7.15 | 41.8% |  |  | CN=[S@@](=O)(N[C@@H]1COC[C@H](N2c3ccccc3Oc3ccccc32)[C@H]1O)c1ccc(OC(F)(F)F)cc1 (relative stereo) [Target T15-2] |
| 10.2 µM | 2.43 | 9.75% |  |  | N=[S@](=O)(N[C@@H]1COC[C@H](n2c3ccc(Cl)cc3c3cc(Cl)ccc32)[C@H]1O)c1ccc(OC(F)(F)F)cc1 (relative stereo) [Target T17-1] |
| 16.6 µM | 3.89 | 19.6% |  |  | CN=[S@](=O)(N[C@@H]1COC[C@H](N2c3ccccc3Oc3ccccc32)[C@H]1O)c1ccc(OC(F)(F)F)cc1 (relative stereo) [Target T15-1] |
| 9.54 µM |  |  |  |  | O=S(=NCC1CC1)(N[C@@H]1COC[C@H](N2c3ccccc3Oc3ccccc32)[C@H]1O)c1ccc(OC(F)(F)F)cc1 (stereo partly drawn) [Target T15A, N-(cyclopropylmethyl)-N′-((3R,4R,5S)-4-hydroxy-5-(10H-phenoxazin-10-yl)tetrahydro-2H-pyran-3-yl)-4-(trifluoromethoxy) benzenesulfonimidoamide] |
